From patent US20130344026A1, “Dimeric Smac Mimetics” (priority 2009, published 2013)
Read-outs that look alike come from different tables or passages of the source.

System: PANC-1 cells
Experiment: cell viability assay in PANC-1 cells (compound alone, + 100 ng/ml TNFa, + 300 ng/ml TRAIL)
Format: cell-based
[1] = Homo sapiens, PANC-1, compound alone, Tables 6-10, read-out: IC50 (μM) in cell viability assay in PANC-1 cells: Compound alone
[2] = with 100 ng/ml TNFa, Tables 6-10, read-out: IC50 (μM) in cell viability assay in PANC-1 cells: Compound + 100 ng/ml TNFa
[3] = with 300 ng/ml TRAIL, Tables 6-10, read-out: IC50 (μM) in cell viability assay in PANC-1 cells: Compound + 300 ng/ml TRAIL
[4] = Homo sapiens, PANC-1, compound alone, Tables 15-18, read-out: IC50 (uM) in cell viability assay in PANC-1 cells: Cmpnd alone
[5] = with 100 ng/ml TNFa, Tables 15-18, read-out: IC50 (uM) in cell viability assay in PANC-1 cells: Cmpnd + 100 ng/ml TNFa
[6] = with 300 ng/ml TRAIL, Tables 15-18, read-out: IC50 (uM) in cell viability assay in PANC-1 cells: Cmpnd + 300 ng/ml TRAIL
[7] = Homo sapiens, PANC-1 cells, compound alone, read-out: IC50 (uM) in cell viability assay in PANC-1 cells, Cmpnd alone
[8] = PANC-1 cells, + 100 ng/ml TNFa, read-out: IC50 (uM) in cell viability assay in PANC-1 cells, Cmpnd + 100 ng/ml TNFa
[9] = PANC-1 cells, + 300 ng/ml TRAIL, read-out: IC50 (uM) in cell viability assay in PANC-1 cells, Cmpnd + 300 ng/ml TRAIL

Structure (SMILES)	IC50 [1]	IC50 [2]	IC50 [3]	other results
CN[C@@H](C)C(=O)N[C@H](C(=O)N1C[C@@H](NC(=O)c2cccc(C(=O)N[C@H]3C[C@@H](C(=O)N[C@@H]4CCCc5ccc(Br)cc54)N(C(=O)[C@@H](NC(=O)[C@H](C)NC)C(C)(C)C)C3)c2)C[C@H]1C(=O)N[C@@H]1CCCc2ccc(Br)cc21)C(C)(C)C (single isomer, unassigned) [Compound 62]	> 1 µM	0.107 µM	0.099 µM	–
CN[C@@H](C)C(=O)N[C@@H](CCCCCC[C@H](NC(=O)[C@H](C)NC)C(=O)N[C@H]1c2ccccc2C[C@@H]1NC(=O)c1cc2ccccc2cc1OC)C(=O)N[C@H]1c2ccccc2C[C@@H]1NC(=O)c1cc2ccccc2cc1OC [Compound 58]	> 1 µM	> 1 µM	> 1 µM	–
C#CC[C@H](NC(=O)[C@H](C)NC)C(=O)N1C[C@@H](NC(=O)c2cc(N)cc(C(=O)N[C@H]3C[C@@H](C(=O)N[C@@H]4CCCc5ccccc54)N(C(=O)[C@@H](NC(=O)[C@H](C)NC)C(C)(C)C)C3)c2)C[C@H]1C(=O)N[C@@H]1CCCc2ccccc21 [Compound H-6]	–	–	–	IC50 [4]: > 1 µM; IC50 [5]: 0.0229 µM; IC50 [6]: 0.0611 µM
CN[C@@H](C)C(=O)N[C@H](C(=O)N1C[C@@H](NC(=O)c2cccc(C(=O)N[C@H]3C[C@@H](C(=O)N[C@H](CO)c4ccccc4)N(C(=O)[C@@H](NC(=O)[C@H](C)NC)C(C)(C)C)C3)c2)C[C@H]1C(=O)N[C@H](CO)c1ccccc1)C(C)(C)C [Compound P3-99]	–	–	–	IC50 [7]: > 1 µM; IC50 [8]: 0.062 µM; IC50 [9]: 0.054 µM
CN[C@@H](C)C(=O)N[C@@H](CCC(=O)Nc1ccc(C#Cc2ccc(NC(=O)CC[C@H](NC(=O)[C@H](C)NC)C(=O)N3CCC[C@H]3C(=O)N[C@@H]3CCCc4ccccc43)cc2)cc1)C(=O)N1CCC[C@H]1C(=O)N[C@@H]1CCCc2ccccc21 [Compound P3-98]	–	–	–	IC50 [7]: > 1 µM; IC50 [8]: 0.01 µM; IC50 [9]: 0.012 µM
CC[C@H](NC)C(=O)N[C@H](C(=O)N[C@@H](CCNC(=O)c1ccc2cc(C(=O)N[C@H]3C[C@@H](C(=O)N[C@@H]4CCCc5ccccc54)N(C(=O)[C@@H](NC(=O)[C@H](C)NC)C(C)(C)C)C3)ccc2c1)C(=O)N[C@H](C)C(C)C)C1CCCCC1 [Compound H-11]	–	–	–	IC50 [4]: > 1 µM
CN[C@@H](C)C(=O)N[C@H](C(=O)N1CCC[C@H]1c1nc(C(=O)NCCC#CC#CCCNC(=O)c2nc([C@@H]3CCCN3C(=O)[C@@H](NC(=O)[C@H](C)NC)C(C)(C)C)oc2-c2c[nH]c3ccccc23)c(-c2c[nH]c3ccccc23)o1)C(C)(C)C [Compound P4-24]	–	–	–	IC50 [4]: > 1 µM
CN[C@@H](C)C(=O)N[C@@H](CCCCCC[C@H](NC(=O)[C@H](C)NC)C(=O)N1CCC[C@H]1CNC(=O)c1ccccc1)C(=O)N1CCC[C@H]1CNC(=O)c1ccccc1 [Compound 16]	> 1 µM	> 1 µM	> 1 µM	–
CN[C@@H](C)C(=O)N[C@H](C(=O)N[C@@H](CCNC(=O)CC[C@H](NC(=O)[C@@H](NC(=O)[C@H](C)NC)C(C)(C)C)C(=O)N[C@@H]1CCCc2ccccc21)C(=O)N[C@@H]1CCCc2ccccc21)C(C)(C)C [Compound 171]	> 1 µM	0.044 µM	0.063 µM	–
CN[C@@H](C)C(=O)N[C@H](C(=O)N1C[C@@H](NC(=O)C2CCCC(C(=O)N[C@H]3C[C@@H](C(=O)N[C@H](C)c4ccccc4)N(C(=O)[C@@H](NC(=O)[C@H](C)NC)C(C)(C)C)C3)C2)C[C@H]1C(=O)N[C@H](C)c1ccccc1)C(C)(C)C (stereo partly shown) [Compound P3-97]	–	–	–	IC50 [8]: 0.059 µM; IC50 [9]: 0.065 µM; IC50 (PANC-1 cells, compound alone, read-out: IC50 (uM) in cell viability assay in PANC-1 cells, Cmpnd alone): > 1 µM
CN[C@@H](C)C(=O)N[C@H](C(=O)N1C[C@@H](NC(=O)c2nc[nH]c2C(=O)N[C@H]2C[C@@H](C(=O)N[C@H](C)c3ccccc3)N(C(=O)[C@@H](NC(=O)[C@H](C)NC)C(C)(C)C)C2)C[C@H]1C(=O)N[C@H](C)c1ccccc1)C(C)(C)C [Compound P3-92]	–	–	–	IC50 [7]: > 1 µM; IC50 [8]: 0.099 µM; IC50 [9]: 0.072 µM
CN[C@@H](C)C(=O)N[C@H](C(=O)N1CCC[C@H]1C(=O)N[C@H]1c2ccccc2C[C@@H]1NC(=O)CCCCC(=O)N[C@H]1Cc2ccccc2[C@@H]1NC(=O)[C@@H]1CCCN1C(=O)[C@@H](NC(=O)[C@H](C)NC)C(C)(C)C)C(C)(C)C [Compound 123]	> 1 µM	0.069 µM	0.067 µM	–
CN[C@@H](C)C(=O)N[C@H](C(=O)N1CCCC1C(=O)N[C@H](COCC#CC#CCOC[C@@H](NC(=O)[C@H](C)NC(=O)[C@H](NC(=O)[C@@H](C)NC)C1CCCCC1)C(C)C)C1CCCCC1)C(C)(C)C (stereo partly shown) [Compound 209]	–	0.0007 µM	0.0007 µM	–
CN[C@@H](C)C(=O)N[C@H](C(=O)N1C[C@@H](NC(=O)c2cccc(C(=O)N[C@H]3C[C@@H](C(=O)NC4CCSc5ccccc54)N(C(=O)[C@@H](NC(=O)[C@H](C)NC)C(C)(C)C)C3)c2)C[C@H]1C(=O)NC1CCSc2ccccc21)C(C)(C)C (single isomer, unassigned) [Compound 68]	–	0.029 µM	0.019 µM	IC50 (compound alone, Tables 6-10, read-out: IC50 (μM) in cell viability assay in PANC-1 cells: Compound alone): > 1 µM
CC[C@@H](NC)C(=O)N[C@@H](C(=O)N[C@@H](C)C(=O)N[C@H](COCC#CC#CCOC[C@@H](NC(=O)C1CCCN1C(=O)[C@@H](NC(=O)[C@H](C)NC)C(C)(C)C)C1CCCCC1)C(C)C)C1CCCCC1 (stereo partly shown) [Compound H-9]	–	–	–	IC50 [4]: > 1 µM; IC50 [5]: 0.005 µM; IC50 [6]: 0.004 µM
CN[C@@H](C)C(=O)N[C@H](C(=O)N1C[C@@H](NC(=O)CCc2ccc(C(=O)N[C@H]3C[C@@H](C(=O)N[C@@H]4CCCc5ccccc54)N(C(=O)[C@@H](NC(=O)[C@H](C)NC)C(C)(C)C)C3)cc2)C[C@H]1C(=O)N[C@@H]1CCCc2ccccc21)C(C)(C)C [Compound 191]	> 1 µM	0.013 µM	0.012 µM	–
CN[C@@H](C)C(=O)N[C@H](C(=O)N1C[C@@H](NC(=O)c2cccc(C(=O)N[C@H]3C[C@@H](C(=O)N[C@H](C)C4OCCCO4)N(C(=O)[C@@H](NC(=O)[C@H](C)NC)C(C)(C)C)C3)c2)C[C@H]1C(=O)N[C@H](C)C1OCCCO1)C(C)(C)C [Compound 53]	> 1 µM	0.466 µM	0.227 µM	–
CN[C@@H](C)C(=O)N[C@@H](CCCCCC[C@H](NC(=O)[C@H](C)NC)C(=O)N1CCC[C@H]1CNC(=O)c1ccccc1O)C(=O)N1CCC[C@H]1CNC(=O)c1ccccc1O [Compound 20]	> 1 µM	> 1 µM	> 1 µM	–
CN[C@@H](C)C(=O)N[C@H](C(=O)N1CCC[C@H]1c1cc(C(=O)OC)c(-c2cn(CCCCCCn3cc(-c4oc([C@@H]5CCCN5C(=O)[C@@H](NC(=O)[C@H](C)NC)C(C)(C)C)cc4C(=O)OC)c4ccccc43)c3ccccc23)o1)C(C)(C)C [Compound P4-27]	–	–	–	IC50 [4]: > 1 µM; IC50 [5]: 0.0243 µM; IC50 [6]: 0.0294 µM
CN[C@@H](C)C(=O)N[C@@H](CC#CC#CC[C@H](NC(=O)[C@H](C)NC)C(=O)N1Cc2ccccc2C[C@H]1C(=O)N[C@H](C)c1ccccc1)C(=O)N1Cc2ccccc2C[C@H]1C(=O)N[C@H](C)c1ccccc1 [Compound 95]	> 1 µM	> 1 µM	> 1 µM	–

Now from value to molecule, other results behind:

IC50 [1]	IC50 [2]	IC50 [3]	Structure (SMILES)	other results
> 1 µM	0.04 µM	0.059 µM	CN[C@@H](C)C(=O)N[C@H](C(=O)N1C[C@@H](n2cc(CCC(=O)N[C@@H]3CC(C(=O)N[C@H](C)c4ccccc4)N(C(=O)C(NC(=O)[C@H](CO)NC)C(C)(C)C)C3)nn2)C[C@H]1C(=O)N[C@@H]1CCCc2ccccc21)C(C)(C)C (stereo partly shown) [Compound 205]	–
> 1 µM	0.683 µM	0.616 µM	CN[C@@H](C)C(=O)NC(C(=O)N[C@@H](CCC(=O)NCCc1cn([C@H]2C[C@@H](C(=O)N[C@@H]3CCCc4ccccc43)N(C(=O)[C@@H](NC(=O)[C@H](C)NC)C(C)(C)C)C2)nn1)C(=O)N[C@H](C)C(C)C)C(C)C (stereo partly shown) [Compound 203]	–
> 1 µM	0.046 µM	0.074 µM	CN[C@@H](C)C(=O)N[C@@H](CCCCNC(=O)C[C@H](NC(=O)[C@H](C)NC)C(=O)N1CCC[C@H]1C(=O)N[C@@H]1CCCc2ccccc21)C(=O)N1CCC[C@H]1C(=O)N[C@@H]1CCCc2ccccc21 [Compound 199]	–
> 1 µM	0.392 µM	0.564 µM	CN[C@@H](C)C(=O)NC(C(=O)N[C@@H](CCNC(=O)CCc1cn([C@H]2C[C@@H](C(=O)N[C@@H]3CCCc4ccccc43)N(C(=O)[C@@H](NC(=O)[C@H](C)NC)C3CCCCC3)C2)nn1)C(=O)N[C@H](C)C(C)C)C(C)C (stereo partly shown) [Compound 204]	–
> 1 µM	0.0069 µM	0.0107 µM	CN[C@@H](C)C(=O)N[C@H](C(=O)N[C@@H](CCNC(=O)c1cccc(C(=O)N[C@H]2C[C@@H](C(=O)N[C@@H]3CCCc4ccccc43)N(C(=O)[C@@H](NC(=O)[C@H](C)NC)C(C)(C)C)C2)c1)C(=O)N[C@H](C)c1ccccc1)C(C)(C)C [Compound 174]	–
> 1 µM	0.128 µM	0.18 µM	CN[C@@H](C)C(=O)NC(C(=O)N[C@@H](CCNC(=O)CCc1cn([C@H]2C[C@@H](C(=O)N[C@@H]3CCCc4ccccc43)N(C(=O)[C@@H](NC(=O)[C@H](C)NC)C(C)(C)C)C2)nn1)C(=O)N[C@H](C)c1ccccc1)C(C)(C)C (stereo partly shown) [Compound 197]	–
> 1 µM	> 1 µM	> 1 µM	CN[C@@H](C)C(=O)Nc1nc(CC(=O)NCC[C@H](NC(=O)[C@@H](NC(=O)[C@H](C)NC)C(C)(C)C)C(=O)N[C@@H]2CCCc3ccccc32)cs1 [Compound 190]	–
